Measured values published in article PMC10650850, “Discovery, Structure–Activity Relationship and In Vitro Anticancer Activity of Small-Molecule Inhibitors of the Protein–Protein Interactions between AF9/ENL and AF4 or DOT1L” (Cancers, 2023).
Entries after “also recorded” stand apart in the source; their conditions may differ. Counter-ions that a name gives are not always drawn. No end group written: not given here. *: point of attachment. Biotin = O=C1N[C@H]2[C@H](CS[C@H]2CCCCC(=O)*)N1; Ahx = NCCCCCC(=O)O

T1: AF9-DOT1L interaction (Homo sapiens, UniProt P42568)
T1 construct: human AF9 AHD domain (475–568); made in house; host or cells: E. coli BL21(DE3)
T1 sequence (P42568 475-568): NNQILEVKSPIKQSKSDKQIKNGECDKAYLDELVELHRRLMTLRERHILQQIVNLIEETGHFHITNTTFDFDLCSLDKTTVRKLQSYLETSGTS

T2: AF9-AF4 (Homo sapiens, UniProt P42568)
T2 construct: human AF9 AHD domain (475–568); made in house; host or cells: E. coli BL21(DE3)
T2 sequence (P42568 475-568): T1 sequence (P42568 475-568)

T3: ENL-AF4 (Homo sapiens, UniProt Q03111)
T3 construct: ENL AHD domain (489–559); made in house; host or cells: E. coli BL21(DE3)
T3 sequence (Q03111 489-559): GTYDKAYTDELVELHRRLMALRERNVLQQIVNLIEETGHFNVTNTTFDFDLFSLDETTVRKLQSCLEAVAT

T4: MBP-tagged ENL AHD domain (489–559) (human, UniProt Q03111 489-559)
T4 construct: ENL (MLLT1), human, C-terminal AHD domain, residues 489-559; cDNA synthesized by Genscript and inserted into pMAL c5X; Expressed from pMAL c5X; the MBP tag is used for capture on anti-MBP acceptor beads; also called MBP-protein; source: E. coli BL21(DE3), purified (amylose resin, size exclusion Superdex 200); not shown: MBP, N-terminal, kept
T4 sequence (looked up): T3 sequence (Q03111 489-559)

T5: MBP-tagged AF9 AHD domain (475–568) (human, UniProt P42568 475-568)
T5 construct: AF9 (MLLT3), human, C-terminal AHD domain, residues 475-568; cDNA synthesized by Genscript and inserted into pMAL c5X; Expressed from pMAL c5X; the MBP tag is used for capture on anti-MBP acceptor beads and for detection by an MBP antibody; also called MBP-protein; source: E. coli BL21(DE3), purified (amylose resin, size exclusion Superdex 200); not shown: MBP, N-terminal, kept
T5 sequence (looked up): T1 sequence (P42568 475-568)

B1: AF4 peptide (Biotin-AHX-QSLMVKITLDLLSRIPQPPGK) (peptide)
peptide: {Biotin-Ahx}-QSLMVKITLDLLSRIPQPPGK
notes: stretch of transcription cofactor AF4 (AFF1) with an LxVxIxLxxV/L motif; also called biotinylated AF4 peptide; source: synthetic peptide, bought: Genscript
B2: DOT1L peptide (Biotin-AHX-NKLPVSIPLASVVLPSRAERARST) (peptide)
peptide: {Biotin-Ahx}-NKLPVSIPLASVVLPSRAERARST
notes: stretch of histone H3K79 methyltransferase DOT1L with an LxVxIxLxxV/L motif; also called biotinylated DOT1L peptide; source: synthetic peptide, bought: Genscript

Legend:
[1] = molecular target: T1, AF9-DOT1L interaction; test: AlphaLisa assay, AF9-DOT1L interaction; format: binding; settings: for IC50: read-out: IC50 (μM) against the AF9-DOT1L interaction; for inhibition at 5 µM: compound at 5 μM, read-out: % Inhibition at 5 μM against the AF9-DOT1L interaction
Summary of the method: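 AlphaLisa proximity assay using MBP-tagged human AF9 AHD (475–568, 5 nM) on anti-MBP acceptor beads and biotinylated DOT1L peptide (40 nM) on streptavidin donor beads, in PBS with 0.5% BSA, pH 7.5. Compound titrated; IC50 from dose-response fits of 3 independent experiments.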

[2] = molecular target: AF9/ENL-DOT1L interaction; set-up: method as in PMID 30258537, PMID 35612819; settings: printed in Chart 1; ref [33],[34]; cited from earlier work
[3] = test system: Molm13; test: Antiproliferation assay (XTT), Molm-13; format: cell-based; settings: Homo sapiens, MOLM-13, 168 h, 7 days incubation, read-out: Antitumor activity EC50, Molm13;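 note: EC50 values in Micromolar not Nanomolar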
Procedure: (§1) The antitumor activity of selected compounds was evaluated against the proliferation of a panel of MLL-r leukemia and other cancer cells. MV4;11 and Molm-13 leukemia cells contain MLL-AF4 and MLL-AF9 fusion oncogenes, respectively. NB4 and HL60 are AML cells without MLL translocation. Hela (cervical cancer) is a solid tumor cell line. […] The anti-proliferation activity of these compounds against other AML cells (i.e., NB4 and HL60) might be due to their inhibition of SEC-mediated gene expression (e.g., Myc), as observed in our previous studies.
(§2) Proliferation inhibition assays were performed using an XTT assay kit (Biotium, Fremont, CA, USA) following our previous methods. The antiproliferation EC50 values were determined using Prism 5 and the reported results were the mean values of at least three independent experiments. The incubation time for all compounds was 7 days.

[4] = test system: panel of MLL-r leukemia and other cancer cells; test: Antiproliferation assay (XTT), panel of MLL-r leukemia and other cancer cells; format: cell-based; settings: 7 days
Procedure: as §1, §2

[5] = test system: HoxA9, Meis1 and Myc; test: RT-qPCR of MLL target genes in Molm-13 cells; format: cell-based; settings: 1 and 5 µM, 4 days
Source text: The major function of the SEC is to promote transcription elongation for its bound genes. Because of the high affinity of the PPIs between AF9/ENL and AF4, onco-MLL (e.g., MLL-AF4 or MLL-AF9/-ENL) recruits SEC to MLL target genes, facilitates their expression, and eventually causes leukemia initiation. Next, we investigated whether selected inhibitors of these PPIs can inhibit the expression of HoxA9, Meis1 and Myc, which are MLL target genes and their high expression is characteristic of MLL-r leukemia. In addition, high expression of Myc is also observed in a broad range of AMLs and other cancers and is considered a driving factor for oncogenesis. To this end, RNAs from the control and compound-treated Molm-13 cells (harboring MLL-AF9) were extracted and subjected to quantitative PCR. […] RNA extraction and RT-qPCR were performed following our previous method. 10^5 cells/mL were incubated with a compound for 4 days and the RNA was extracted using an RNeasy mini kit (#74104, Qiagen, Germantown, MD, USA). 100–1000 ng of total RNA was reverse transcribed using iScript™ Reverse Transcription Supermix (Bio-Rad, Hercules, CA, USA), using the manufacturer’s protocol. Quantitative real-time PCR was carried out using Fast SYBR Green Master Mix (Applied Biosystems, Waltham, MA, USA) according to the manufacturer’s instructions. Measurements were performed in triplicate using GAPDH as the reference gene. Real-time PCR was performed using the Biosystems Step One Plus detection system. The following sequences of primers were used: […]

[6] = molecular target: T1, AF9-DOT1L interaction; test: Pull-down assay of AF9 AHD with DOT1L peptide-coated beads; format: binding; settings: for remaining activity at 10 µM / remaining activity at 50 µM: Western blot, read-out: AF9 AHD % Control; for remaining activity at 10 µM: compound 10 μM; for remaining activity at 50 µM: compound 50 μM; for Effect on AF9 AHD bound to DOT1L peptide-coated beads (in words): up to 50 µM
Source text: A pull-down assay was used to confirm that the strong inhibitors could disrupt the AF9-DOT1L interaction. Streptavidin agarose beads coated with biotinylated DOT1L peptide were used to pull-down the protein AF9 AHD in the solution, followed by thorough washing, SDS-PAGE (sodium dodecyl sulfate-polyacrylamide gel electrophoresis) and Western blotting to visualize and quantitate the protein. […] This alternative, non-optical method confirmed that compounds 24 and 50 can inhibit the PPI between AF9 and DOT1L.
The pull-down assays were conducted following our previous method. Briefly, the biotinylated DOT1L peptide (0.25 mg/mL) was incubated with streptavidin agarose beads (20 μL) in PBS containing 0.1% Triton X-100 (400 µL) for 3h to yield, after washing, DOT1L-coated beads. MBP-tagged AF9 AHD (0.2 µM, 400 µL) was pre-incubated with a compound for 1 h before adding to the beads. After 6 h incubation at 4 °C, the beads were collected, thoroughly washed, and subjected to SDS-PAGE and analyzed by Western blot using an MBP antibody (#2396, Cell signaling, Danvers, MA, USA).

[7] = molecular target: T2, AF9-AF4; test: AlphaLisa assay, AF9-AF4 interaction; format: binding; settings: AF9 AHD, AF4 peptide
Procedure: (§3) Transcription cofactor AF4, which is the most frequent (~35%) fusion protein in MLL1-r leukemia, is another binding partner of AF9/ENL [35, 36, 37]. The AF9/ENL-AF4 interactions are essential for the formation of SEC, which causes aberrant gene expression in MLL-r leukemia and other AMLs. Using our previously developed AlphaLisa assays, selected compounds were tested for their ability to inhibit the PPIs between AF9 or ENL and AF4.
(§4) The cDNA for the human AF9 AHD domain (475–568) and ENL AHD domain (489–559) was synthesized (by Genscript, Piscataway, NJ, USA) and inserted into the pMAL c5X expression plasmid. The DOT1L peptide (Biotin-AHX-[…]) and AF4 peptide (Biotin-AHX-[…]) for the Alpha assay were purchased from Genscript.
(§5) Alpha assays were developed in our previous publication, using a Perkin-Elmer AlphaLisa anti-MBP kit, which contains streptavidin donor beads and anti-MBP acceptor beads. Briefly, the assay was performed using a MBP-protein (5 nM), a biotinylated peptide (40 nM), and increasing concentrations of a compound in 25 µL buffer (PBS with 0.5% BSA, pH 7.5) in 384-well plates according to the manufacturer’s protocol and measured with a Tecan SPARK microplate reader. Data were imported into Prism (version 5.0), and IC50 values from 3 independent experiments with standard deviation were obtained by using a standard dose-response curve fitting.

[8] = test system: MV4;11; test: Antiproliferation assay (XTT), MV4;11; format: cell-based; settings: Homo sapiens, MV4-11, 168 h, 7 days incubation, read-out: Antitumor activity EC50, MV4;11;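 note: EC50 values in Micromolar not Nanomolar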
Procedure: as §1, §2

[9] = test system: Hela; test: Antiproliferation assay (XTT), Hela; format: cell-based; settings: Homo sapiens, HeLa, 168 h, 7 days incubation, read-out: Antitumor activity EC50, Hela
Procedure: as §1, §2

[10] = test system: HL60; test: Antiproliferation assay (XTT), HL60; format: cell-based; settings: Homo sapiens, HL-60, 168 h, 7 days incubation, read-out: Antitumor activity EC50, HL60;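 note: EC50 values in Micromolar not Nanomolar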
Procedure: as §1, §2

[11] = molecular target: T3, ENL-AF4; test: AlphaLisa assay, ENL-AF4 interaction; format: binding; settings: ENL AHD, AF4 peptide
Procedure: as §3, §4, §5

[12] = test system: NB4; test: Antiproliferation assay (XTT), NB4; format: cell-based; settings: Homo sapiens, NB-4, 168 h, 7 days incubation, read-out: Antitumor activity EC50, NB4;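 note: EC50 values in Micromolar not Nanomolar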
Procedure: as §1, §2

[13] = molecular target: T4, MBP-tagged ENL AHD domain (489–559); test: AlphaScreen or HTRF; AlphaLisa (Perkin-Elmer anti-MBP kit): MBP-protein (5 nM) on anti-MBP acceptor beads, biotinylated peptide (40 nM) on streptavidin donor beads, increasing concentrations of a small-molecule compound, 25 µL PBS with 0.5% BSA, pH 7.5, 384-well plates; settings: both partners purified
[14] = molecular target: T5, MBP-tagged AF9 AHD domain (475–568); test: as above; settings: both partners purified
[15] = MBP-protein 5 nM, biotinylated peptide 40 nM, 3 independent experiments with standard deviation

| Molecule | IC50 [1, 15] [µM] | inhibition at 5 µM [1] [%] | EC50 [3] [µM] | Expression of MLL target genes HoxA9, Meis1 and Myc (in words) [5] | remaining activity at 10 µM [6] [%] | remaining activity at 50 µM [6] [%] | Effect on AF9 AHD bound to DOT1L peptide-coated beads (in words) [6] | IC50 [7] [µM] | EC50 [8] [µM] | EC50 [9] [µM] | EC50 [10] [µM] | IC50 [11] [µM] | EC50 [12] [µM] | binding result [14] | other results |
| --- | --- | --- | --- | --- | --- | --- | --- | --- | --- | --- | --- | --- | --- | --- | --- |
| N#Cc1cccc(-c2ccc3cc(C(=O)NCC4CCNCC4)[nH]c3c2)c1 [Compound 10, 6-(3-Cyanophenyl)-N-(piperidin-4-ylmethyl)-1H-indole-2-carboxamide hydrochloride] | 2.1 | 0 |  |  |  |  |  |  |  |  |  |  |  |  | Ki [2]: 0.009 µM |
| Cl.NC(=O)c1ccc(-c2ccc3cc(C(=O)NCC4CCNCC4)sc3c2)cc1 [Compound 37, 6-(4-(Carbamoyl)phenyl)-N-(piperidin-4-ylmethyl)-benzo[b]thiophene-2-carboxamide hydrochloride] |  | 0 | > 50 | not and did not significantly affect the expression | 54 | 44 | did not significantly affect the AF9 AHD levels; also recorded: did not significantly affect the binding | > 50 | > 50 | > 50 | > 50 | > 50 | > 50 |  | Inhibition of tumor cell proliferation (in words) ([4]; MV4;11, Molm-13, NB4, HL60 and Hela cells): None of these three compounds inhibited tumor cell proliferation; IC50 AF9-AF4 [7]: did not inhibit; IC50 (μM) against the AF9-DOT1L interaction [1, 15]: inactive; IC50 ENL-AF4 [11]: did not inhibit |
| Cl.O=C(NCC1CCNCC1)c1cc2cc(-c3ccc(N4CCCCC4)cc3)ccc2s1 [Compound 50, 5-(4-(Piperidin-1-yl)phenyl)-N-(piperidin-4-ylmethyl)-benzo[b]thiophene-2-carboxamide hydrochloride] | 2.5 ± 0.2 |  | 5.1 ± 0.2 | inhibited expression; also recorded: able to reduce the expression | 27 | 29 | significantly reduced the amounts of AF9 AHD; also recorded: dose-dependently reduce AF9 AHD | 2.5 ± 0.3 | 8.2 ± 1.2 | 25 ± 2.5 | 9 ± 0.9 | 3.4 ± 0.4 | 9.4 ± 1.2 |  | EC50 ([4]; 168 h, MV4;11, Molm-13, NB4 and HL60 cells, read-out: Antitumor activity EC50, span over MLL-r leukemia and AML cells): 5.1 to 9.4 µM |
| B1 |  |  |  |  |  |  |  |  |  |  |  |  |  | binds | binding result [13]: binds |
| B2 |  |  |  |  |  |  |  |  |  |  |  |  |  | binds |  |
